Reference: a melting point compilation (Tetko et al.; mined from patent text by program, amines drawn as free bases though some values may be those of a salt)

SMILES	melting point
Cc1nc2cc(C(F)(F)F)c(Cl)c(N)c2n1N(C)C	173 to 174 °C
CNCC(O)C1=CSC2C=CC=CC12 (stereo unspecified)	98 to 102 °C
O=C(O)c1cnn(-c2nc(-c3cccc(C(F)(F)F)c3)cs2)c1	229 to 230 °C
Nc1nnc(-c2ccccc2Nc2cccc(C(F)(F)F)c2)s1	122 to 123 °C
CCCCCCCCCCCCCCCCC(C)(C)C(=O)O	50 to 53 °C
CCOP(=O)(NN=C(c1ccc(Cl)cc1)c1ccc(OS(C)(=O)=O)cc1)OCC	90 to 91 °C
CCCc1ccc(C2c3c(C)c(N)c(C)c(C)c3OC2(C)C)cc1 (stereo unspecified)	68 to 69 °C
Cc1ccccc1C1C(=O)CC2CCCCC2C1=O (stereo unspecified)	165 to 167 °C
Cc1cccc(Nc2ccccc2C(=O)OCc2ccccn2)c1C	63 to 64 °C
COc1ccc(-n2nc(Sc3ccc(C)cc3)c(C)c(C#N)c2=O)cc1	148 to 149 °C
CCc1ccc(-c2oc3cccc4c3c2C=CC4=O)cc1	186 °C
CC1Cc2c(occ(C=O)c2=O)-c2ccccc21 (stereo unspecified)	146 to 148 °C
CC(C)(C)NC(=O)NC(Cc1ccccc1)C(O)C(O)C(Cc1ccccc1)NC(=O)NC(C)(C)C (stereo unspecified)	193 to 196 °C
CCCCN1CCC(COC(=O)c2cc(Cl)c(N)cc2OC)C(O)C1 (stereo unspecified)	121 °C
CCCCCCCCNC(=O)C1CC1c1ccc(N2CC(C(=O)O)CC2=O)cc1 (stereo unspecified)	214 °C
CO[C@@H]1c2ccn3c(C)c(C)nc3c2N[C@H](c2ccccc2)[C@H]1OC=O	152 to 153 °C
CC1(C(=O)O)CCc2cc(O)c(C(C)(C)C)cc2O1 (stereo unspecified)	218 to 221 °C
C=CC(=O)NC(=O)N1CC1C#N (stereo unspecified)	158 to 160 °C
CS(=O)(=O)Nc1ccc(C#N)cc1C(O)c1ccc(F)cc1F (stereo unspecified)	133 to 135 °C
COc1cc(Oc2c(Cl)cccc2C(F)(F)F)nc(C(=O)O)c1	110 to 112 °C
CCOc1cc(CO)ncc1C	99 to 101 °C

SMILES	melting point
CCOC(=O)c1cccn2c(C#N)c(-c3ccccc3)nc12	87 to 89 °C
CC(=O)OC1CSC(Oc2cccnc2-c2ccc(C)o2)C(OC(C)=O)C1OC(C)=O (stereo unspecified)	128 °C
O=C(NC1CN2CCC1CC2)c1cc(Cl)cc2oc(-c3ccccc3)nc12 (stereo unspecified)	180 to 183 °C
Cc1ccc(S(=O)(=O)OCC2Cc3c(C(F)(F)F)ccc(Cl)c3O2)cc1 (stereo unspecified)	89 to 92 °C
CCc1c(-c2ccc(OCc3ccccc3)cc2)c2c(C(=O)O)c(C(=O)O)c3c(OC)ccc1n32	198 to 200 °C
CCC(C)(C)N1CCN(C(=O)Nc2ccc3[nH]c(C(=O)N4CCN(c5ncccc5NC(C)C)CC4)cc3c2)CC1	240 to 242 °C
Cc1ccc(C)c(-c2sc(NC(=O)[C@@H]3C[C@@H]4CC[C@H]3C4)c(C#N)c2Cl)c1	117 to 119 °C
CCc1sc2c(c1S(=O)(=O)c1ccc(OCCCN(C)C(C)c3ccc(OC)c(OC)c3)cc1)CN(Cc1ccccc1Cl)CC2 (stereo unspecified)	110 °C
COc1ccccc1C1=CC(C)(C)Oc2ccc(C#N)cc21	109 to 111 °C
CN1C(O)=C(c2ccccc2)N=NC1(C)N (stereo unspecified)	91 °C
COC(=O)C1CCc2c(oc3cccc(Cl)c23)C1 (stereo unspecified)	99 to 102 °C
COC(=O)C=Cc1ccc(C)cc1	55 to 56 °C
COc1c(Oc2ccc3ncc([N+](=O)[O-])n3n2)cnc(CNc2nc(C)nc(C)c2Cl)c1C	230 to 232 °C
O=S(=O)(c1ccc(F)cc1)N1CCCC1c1ccsc1 (racemic)	135 °C
N#Cc1c(N2CCc3ccccc3CC2)ncn(CCO)c1=O	167 to 171 °C
ON=C(Cc1ccccc1)c1cccnc1	122 to 126 °C
CS(=O)(=O)Oc1ccc(C=O)cc1	61 to 63 °C
CC1CC(C)CN(Cc2ccc(C=CC(=O)Nc3ccc(-c4ccc(Cl)cc4)cc3)cc2)C1 (stereo unspecified)	217 to 218 °C
CCCSc1ccc(C(=O)C(=O)O)[nH]1	87 °C
CCOc1ccc(O)c(C(C)(C)C)c1	96 to 98 °C
